According to ChEMBL document CHEMBL1201862, “PubChem BioAssay data set” (2004):
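The compound was tested at five concentrations on cells cultured in 96-well plates, with a 48-hour exposure period. Here, GI50 denotes the concentration required for 50% inhibition of growth.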 Calls of active or inactive are those of the source. Rule as the data show it: active = GI50 up to about 1.1 µM and inactive = higher.

Experiments:
Assay in all cases: NCI-60 cell line screen, 48 h
HT-29 = test system: HT-29
BT-549 = test system: BT-549
CAKI-1 = test system: CAKI-1
EKVX = test system: EKVX
U-251 = test system: U-251
OVCAR-3 = test system: OVCAR-3
NCI/ADR-RES = test system: NCI/ADR-RES
RXF 393 = test system: RXF 393
Malme-3M = test system: Malme-3M
SK-MEL-2 = test system: SK-MEL-2
SR = test system: SR
OVCAR-5 = test system: OVCAR-5
IGROV-1 = test system: IGROV-1
Hs-578T = test system: Hs-578T
TK-10 = test system: TK-10
HCT-116 = test system: HCT-116
SK-MEL-5 = test system: SK-MEL-5
UACC-257 = test system: UACC-257
MDA-MB-435 = test system: MDA-MB-435
SF-539 = test system: SF-539

Measured: GI50

CN1CN(c2ccccc2)C2(CCN(CCCSc3ccccc3NC(=O)/C=C/c3ccccc3)CC2)C1=O
inactive: HT-29 2.29 µM | BT-549 2.54 µM | CAKI-1 9.91 µM | EKVX 4.98 µM | U-251 7.5 µM | OVCAR-3 3.18 µM | NCI/ADR-RES 3.87 µM | RXF 393 7.55 µM | Malme-3M 2.15 µM | SK-MEL-2 2.58 µM | SR 2.1 µM | OVCAR-5 22.6 µM | IGROV-1 2.86 µM | Hs-578T 3.41 µM | TK-10 8.39 µM | HCT-116 2.5 µM | SK-MEL-5 3.55 µM | UACC-257 1.78 µM | MDA-MB-435 2.61 µM | SF-539 2.88 µM

NNC(=O)CC(=O)Nc1ccccc1Cl
inactive: HT-29 > 100 µM | BT-549 > 100 µM | CAKI-1 > 100 µM | EKVX > 100 µM | U-251 > 100 µM | OVCAR-3 > 100 µM | NCI/ADR-RES > 100 µM | RXF 393 > 100 µM | Malme-3M > 100 µM | SK-MEL-2 > 100 µM | SR > 100 µM | OVCAR-5 > 100 µM | IGROV-1 > 100 µM | Hs-578T > 100 µM | TK-10 > 100 µM | HCT-116 > 100 µM | SK-MEL-5 > 100 µM | UACC-257 > 100 µM | MDA-MB-435 > 100 µM | SF-539 > 100 µM

C=CC[C@@]1(OC(C)=O)C(=O)C(=O)OC1C1COC(C)(C)O1 (stereo not given in full)
inactive: HT-29 19.3 µM | BT-549 21.1 µM | CAKI-1 2.08 µM | EKVX 16.4 µM | U-251 16.9 µM | OVCAR-3 17.1 µM | NCI/ADR-RES 25.3 µM | RXF 393 16.3 µM | Malme-3M 17.2 µM | SK-MEL-2 21.6 µM | SR 15.2 µM | OVCAR-5 19.8 µM | IGROV-1 18.6 µM | Hs-578T 31 µM | TK-10 16.3 µM | HCT-116 13.1 µM | SK-MEL-5 16.6 µM | UACC-257 16.3 µM | MDA-MB-435 16.8 µM | SF-539 25.1 µM

Cc1ccc(S(=O)(=O)N/N=C2\CCCCCCCCCCC2CN(C)C)cc1 (stereo not given)
inactive: HT-29 15.5 µM | BT-549 17.7 µM | CAKI-1 26.7 µM | EKVX 22.9 µM | U-251 15.9 µM | OVCAR-3 17.5 µM | NCI/ADR-RES 14.9 µM | RXF 393 11.6 µM | Malme-3M 16.6 µM | SK-MEL-2 10.6 µM | SR 16.9 µM | OVCAR-5 16.3 µM | IGROV-1 16 µM | Hs-578T 15 µM | TK-10 14.4 µM | HCT-116 14.7 µM | SK-MEL-5 11.2 µM | UACC-257 15 µM | MDA-MB-435 14.7 µM | SF-539 17.1 µM

C=CCN1C(=O)/C(=C/c2ccccc2)NC1=S
inactive: HT-29 > 100 µM | BT-549 > 100 µM | CAKI-1 > 100 µM | EKVX 91 µM | U-251 > 100 µM | OVCAR-3 > 100 µM | NCI/ADR-RES > 100 µM | RXF 393 > 100 µM | Malme-3M > 100 µM | SK-MEL-2 > 100 µM | SR > 100 µM | OVCAR-5 > 100 µM | IGROV-1 > 100 µM | Hs-578T > 100 µM | TK-10 > 100 µM | HCT-116 > 100 µM | SK-MEL-5 65.5 µM | UACC-257 74.1 µM | MDA-MB-435 > 100 µM | SF-539 > 100 µM

Cn1cnc([N+](=O)[O-])c1[Se]c1nc(N)nc2c1ncn2C1OC(CO)C(O)C1O (stereo not given)
inactive: HT-29 > 100 µM | BT-549 > 100 µM | CAKI-1 > 100 µM | EKVX > 100 µM | U-251 > 100 µM | OVCAR-3 > 100 µM | NCI/ADR-RES > 100 µM | RXF 393 > 100 µM | Malme-3M > 100 µM | SK-MEL-2 > 100 µM | SR > 100 µM | OVCAR-5 > 100 µM | IGROV-1 > 100 µM | Hs-578T > 100 µM | TK-10 > 100 µM | HCT-116 > 100 µM | SK-MEL-5 > 100 µM | UACC-257 > 100 µM | MDA-MB-435 > 100 µM | SF-539 > 100 µM

Cc1ccc([S+](c2ccccc2)c2cc(C)ccc2C)cc1.O=C(OC(C(=O)[O-])C(OC(=O)c1ccccc1)C(=O)O)c1ccccc1 (stereo not given)
inactive: HT-29 7.69 µM | BT-549 3.37 µM | CAKI-1 14.6 µM | EKVX > 100 µM | U-251 5.37 µM | OVCAR-3 3.14 µM | NCI/ADR-RES > 100 µM | RXF 393 34 µM | Malme-3M 44.9 µM | SK-MEL-2 3.51 µM | SR 1.85 µM | OVCAR-5 23.2 µM | IGROV-1 10.7 µM | Hs-578T 5.12 µM | TK-10 18.2 µM | HCT-116 3.49 µM | SK-MEL-5 3.85 µM | UACC-257 1.96 µM | MDA-MB-435 5.3 µM | SF-539 29 µM

C(=N\NC1=NCCN1)/c1ccc(-c2cn3cc(/C=N/NC4=NCCN4)ccc3n2)cc1
inactive: HT-29 11.9 µM | BT-549 18.2 µM | CAKI-1 22 µM | EKVX > 50.4 µM | U-251 15.5 µM | OVCAR-3 > 39.4 µM | NCI/ADR-RES > 66.2 µM | RXF 393 > 55.6 µM | Malme-3M 2.82 µM | SK-MEL-2 > 100 µM | SR 3.33 µM | OVCAR-5 64.3 µM | IGROV-1 15 µM | Hs-578T > 87.3 µM | TK-10 26.6 µM | HCT-116 10.4 µM | SK-MEL-5 > 100 µM | UACC-257 30.3 µM | MDA-MB-435 24.5 µM | SF-539 > 100 µM

O=C1CCc2c(sc3ncnc(Nc4cccc(Br)c4)c23)C1
inactive: HT-29 12.1 µM | BT-549 3.77 µM | CAKI-1 2.09 µM | EKVX 2.19 µM | U-251 2.81 µM | OVCAR-3 2.51 µM | NCI/ADR-RES 2.94 µM | RXF 393 2.73 µM | Malme-3M 1.76 µM | SK-MEL-2 6.89 µM | SR 2.33 µM | OVCAR-5 6.98 µM | IGROV-1 1.68 µM | Hs-578T 4.15 µM | TK-10 4.06 µM | HCT-116 3.56 µM | SK-MEL-5 1.88 µM | UACC-257 3.55 µM | MDA-MB-435 1.94 µM | SF-539 3.63 µM

COC1=CC(=O)C[C@@H](C)[C@]12Oc1c(Cl)c(OC)cc(OC)c1C2=O [GRISEOFULVIN]
inactive: HT-29 16.8 µM | BT-549 > 39.5 µM | CAKI-1 9.53 µM | EKVX > 100 µM | U-251 27.7 µM | OVCAR-3 37.3 µM | NCI/ADR-RES 12.3 µM | RXF 393 10.5 µM | Malme-3M 76.4 µM | SK-MEL-2 > 71.6 µM | SR 7.48 µM | OVCAR-5 > 91.6 µM | IGROV-1 17.4 µM | Hs-578T 11.9 µM | TK-10 > 85.1 µM | HCT-116 11.8 µM | SK-MEL-5 7.62 µM | UACC-257 > 20.5 µM | MDA-MB-435 2.42 µM | SF-539 14.6 µM
